The results in this text go back to patent US20160291027A1, “METHODS FOR […] ABILITY OF A Z[…] COMPOUND TO TREAT CANCER” (Eisai R&D Management Co., Ltd., priority 2007, published 2016).

In experiment [1] the test system is BRAF-mutated xenograft models (breast, colon, and melanoma cell lines). Briefly: Other xenograft models, BRAF-mutated. It counts as in vivo, mice. Particulars: 40 mg/kg i.v. QD×5 for 2 weeks. The protocol: Additionally, one, five, and seven out of eight animals in the groups treated with Compound 106 at doses of 10, 20, or 40 mg/kg, respectively, were tumor-free at the end of the study on day 59. […] Compound 106 was also tested in other xenograft models, in which BRAF-mutated cells, including breast, colon, and melanoma cell lines, or wildtype cells, including pancreatic cell lines, were transplanted subcutaneously into female nude mice. Compound 106 or a vehicle control was administered intravenously.

In experiment [2] the test system is LOX human melanoma xenografts. The experiment in a line: Immunohistochemistry of LOX xenografts after single dosing. It counts as in vivo, mice. Particulars: single 40 mg/kg i.v. The protocol: LOX human melanoma cells, which carry the V600E BRAF mutation, were originally obtained from the DCTD Tumor Repository (Frederick, Md.). The cells were grown in monolayer cultures in DCTD-recommended growth media at 37° C. in a 5% CO2 humidified incubator. On the day of subcutaneous (s.c.) injections of the cells, growth medium was removed, flasks were washed with PBS, and cells were collected with trypsinization. The cells were washed and collected by centrifugation, and then resuspended in ice-cold PBS at a concentration of 1×10^7 cells/mL. The cells (1×10^6 cells) were inoculated s.c. in female athymic NU/NU mice near the right axillary area using a 27-gauge needle with a volume of 0.1 mL, and allowed to grow. Compound 106 was administered intravenously (i.v.) on a single dosing at the dosage level of 40 mg/kg with a volume of injection 0.1 mL per 10 g body weight. Then, the mice were euthanized at different time points including 0, 1, 2, 4, 8, 12, 24, 48, 72 h after dosing. The tumor tissue was dissected and fixed with 10% formalin for immunohistochemistry.
For immunohistochemical detection of phospho-ERK 1/2, rabbit mAb 20011 was used at a final concentration of […] (Cell Signaling, Cat. No. 4376). This mAb detects endogenous levels of p44 and p42 MAP Kinase (ERK1 and ERK2) when dually phosphorylated at Thr202 and Tyr204 of ERK1 (Thr185 and […] of ERK2), and singly phosphorylated at Thr202. Conditions were essentially as described in IHC Procedure (2), with incubation overnight (18 hr) at 4° C. and EDTA retrieval buffer. Secondary reagent was goat anti-rabbit antibody, conjugated to alkaline phosphatase.
For immunohistochemical detection of phospho-RB, anti-phospho-Retinoblastoma (pSer780) antibody (Sigma, Cat. No. R6275) was used (Table 10). Conditions were as described in IHC Procedure (1), with incubation for one hour at room temperature and EDTA retrieval buffer. Secondary reagent was anti-rabbit antibody, conjugated to horseradish peroxidase.

Another experiment has as its system Colo-205. Briefly: MTS cell growth inhibition assay. It is filed as cell-based. Particulars: Homo sapiens, 96 h, Colo-205 colorectal, BRAF mutated, four days. The protocol:
(§1) Cell growth inhibition following treatment with a zearalenone analog compound, Compound 106, was assessed in a panel of cancerous cell lines from different tissue types, which carry mutations in BRAF and/or RAS. A panel of 21 cell lines was tested with varying concentrations of Compound 106. All assays were performed in a 96 well format. Cell viability was assessed after four days following treatment. Cell viability was assessed with a MTS Assay (CellTiter96®AqueousOne Solution Cell Proliferation Assay, Promega) in a panel of cell lines carrying no mutations or various BRAF (V600E) and/or RAS mutations to determine the effect of BRAF and RAS genotype on drug sensitivity.

Another experiment relates to SK-MEL-3. The experiment in a line: MTS cell growth inhibition assay. It counts as cell-based. Particulars: Homo sapiens, SK-MEL3, 96 h, SK-MEL-3 melanoma, BRAF mutated, four days. The protocol: as §1
Another experiment has as its system HT-29. Briefly: MTS cell growth inhibition assay. It is filed as cell-based. Particulars: Homo sapiens, 96 h, HT-29 colorectal, BRAF mutated, four days. The protocol:
as §1

Another experiment has as its system DU4475. Briefly: MTS cell growth inhibition assay. It is filed as cell-based. Conditions: Homo sapiens, DU-4475, 96 h, DU4475 breast, BRAF mutated, four days. The protocol:
as §1

The next experiment deals with SK-MEL-28. Briefly: MTS cell growth inhibition assay. It is filed as cell-based. Particulars: Homo sapiens, 96 h, SK-MEL-28 melanoma, BRAF mutated, four days. The protocol:
as §1

In the next experiment the test system is MDA-MB-435. The experiment in a line: MTS cell growth inhibition assay. It counts as cell-based. Particulars: Homo sapiens, 96 h, MDA-MB-435 breast, BRAF mutated, four days. The protocol:
as §1

Another experiment has as its system SK-MEL-24. The experiment in a line: MTS cell growth inhibition assay. Conditions: Homo sapiens, 96 h, SK-MEL-24 melanoma, BRAF mutated, four days. It is filed as cell-based. The protocol:
as §1

pIC50: −log10 of the molar value.

With `CCNc1cc(O)c2c(c1)/C=C/C[C@H](O)[C@H](O)C(=O)/C=C\[C@@H](C)[C@H](C)OC2=O` [Compound 106], the tumor regression entry in [1] (strongest effect of the range) is “about 73%”. Also, the tumor growth inhibition in experiment [1] (weakest effect of the range: tumor stasis (but not regression) during treatment) is reported as more than 80%. Moreover, the “Time for phospho-ERK staining to recover to baseline levels” value in [2] is not above 24 h. Moreover, in [2] (8 hour time-point), the “Phospho-ERK staining (IHC)” value is recorded as “essentially no observable staining”. In addition, in experiment [2] (between 24 and 48 hours, through 72 hours), the “Ki67 staining (IHC)” value is “suppressed to below detection”. Besides, the “phospho-pRB level (IHC)” value in experiment [2] (between 48 and 72 hours) was “suppressed to below detection”. Besides, the pIC50 with Colo-205, in the experiment with SK-MEL-3, in the experiment with HT-29, with DU4475, in the experiment with SK-MEL-28 and with MDA-MB-435 was more than 7.00 each time. This molecule also had a pIC50 in the experiment on SK-MEL-24 of more than 7.00.

A word on the pIC50: it is the IC50 on a negative log10 scale, so that one unit is a factor of ten.
